Experimental data taken from patent US12065430B2, “Indazole compound or salt thereof” (TAIHO PHARMACEUTICAL CO., LTD., priority 2018, dated 2024).
pIC50: −log10 of the molar value.

Tests used:
[1] = biological target: G12C K-Ras4B (1-169) (Homo sapiens (Human), UniProt P01116, G12C); test: Test of compounds on whether to bind to KRASG12C (LC-MS compound binding rate); conditions: final compound concentration of 2 μM, 1 μM protein, 25° C. for 2 hours
Method in brief: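 K-Ras4B (1-169) WT and G12C (1 μM each, mixed) in 1×TBS, 0.1 mM TCEP incubated with compound (final 2 μM) 2 h at 25° C; quenched with 0.2% formic acid. Intact-protein LC-MS (ESI+, deconvoluted); binding rate = adduct signal/(adduct + unbound signal), giving selectivity over WT.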

[2] = biological target: KRAS G12C (Homo sapiens (Human), UniProt P01116, G12C); test: Inhibitory activity on KRAS G12C nucleotide (GDP-GTP) exchange reaction (Bodipy FL GDP, SOS1, GppNHp); type: biochemical; conditions: preincubation at 25° C. for 4 hours; SOS1 100 nM, GppNHp 1 μM, reaction 30 minutes
Method: The inhibitory activity of compounds on exchange reaction of GDP into GppNHp in Bodipy (trademark) FL-bound KRAS G12C was examined by fluorescence measurement using human recombinant KRAS G12C and SOS1 proteins.
For the preparation of KRAS G12C to which Bodipy FL GDP was bound, first, 50 μM^y KRAS G12C (amino acid region: 1-169) and 1 mM Bodipy FL GDP (Invitrogen, G22360) were incubated for 1 hour in a buffer (20 mM Tris-HCl (pH 7.5), 50 mM NaCl, 1 mM DTT) in ice in the presence of 2.5 mM EDTA. Thereafter, MgCl2 with a final concentration of 10 mM was added, and the mixture was incubated at room temperature for 30 minutes. The protein was allowed to pass through a NAP-5 column to remove free nucleotides and was used for compound evaluation.
For the measurement of the inhibitory activity of compounds on nucleotide exchange reaction, first, the compound of the present invention was diluted stepwise with dimethyl sulfoxide (DMSO). […] The change in fluorescence intensity of Bodipy FL (excitation wavelength: 485 nm, fluorescence wavelength: 520 nm) immediately after the start of reaction and after 30 minutes from the start of reaction was standardized. […]

[3] = test system: NCI-H358 cells; test: Growth inhibition activity on KRAS-G12C mutant cell line (NCI-H358) (in vitro, CellTiter-Glo2.0); type: cell-based; conditions: Homo sapiens, NCI-H358, 72 h, 3-day culture in the presence of the compound
Method: NCI-H358 cells (ATCC, Cat #: CRL-5807), which are a KRAS-G12C mutant human lung cancer cell line, were suspended in a 10% fetal bovine serum-containing RPMI1640 medium (manufactured by Fujifilm Wako Pure Chemical Corporation.). The cell suspension was seeded into each well of a 384-well flat-bottom microplate and cultured in an incubator containing 5% CO2 gas at 37° C. for 1 day. The test compound was dissolved in DMSO, and diluted with DMSO to give a concentration 500 times the final concentration. The solution of the test compound in DMSO was diluted with the medium used for suspending cells and added to each well of the cell-culture plate to give a DMSO final concentration of 0.2%, followed by culture in an incubator containing 5% CO2 gas at 37° C. for another 3 days. The cell count after 3-day culture in the presence of the compound was measured using CellTiter-Glo2.0 (manufactured by Promega Corporation) in accordance with the protocol recommended by Promega Corporation. The growth inhibition rate was calculated from the following equation, and the concentration of the test compound at which 50% inhibition was achieved (IC50 (nM)) was determined. […] Growth Inhibition Rate (%)=(C−T)/(C)×100 • T: the emission intensity in a well into which a test compound was added. • C: the emission intensity in a well into which a test compound was not added.

[4] = test system: tumor-bearing mice expressing KRAS G12C mutation; conditions: reported in PTL 2 and NPL 3; cited from earlier work
[5] = biological target: G12C mutant of inactive KRAS (GDP) (Homo sapiens (Human), UniProt P01116, G12C); conditions: reported in PTL 1 and NPL 2; cited from earlier work
[6] = test system: cancer cells with KRAS G12C mutation; conditions: reported in PTL 1 and NPL 2; cited from earlier work

G12C mutant of inactive KRAS (GDP), sequence (P01116-2 other isoform, or with tags, fused parts or gaps G12C): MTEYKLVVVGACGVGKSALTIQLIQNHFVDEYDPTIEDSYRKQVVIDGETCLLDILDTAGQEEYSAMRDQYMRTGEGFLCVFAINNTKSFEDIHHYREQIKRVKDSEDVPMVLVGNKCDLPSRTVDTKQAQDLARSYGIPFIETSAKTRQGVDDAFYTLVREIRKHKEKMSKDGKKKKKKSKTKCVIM

SMILES	pIC50 [3]	binding rate for G12C K-Ras4B (1-169) [1]	also measured
C=CC(=O)N1CCN(c2ncnc3c(F)c(-c4c(O)cccc4F)c(Cl)cc23)CC1 [ARS-1620]	–	–	antitumor action [4]: exerts antitumor action in tumor-bearing mice expressing KRAS G12C mutation
C=CC(=O)N1CC(NC(=O)c2c(C(F)F)nc(CNc3n[nH]c4cc(Cl)c(C(C)(C)C)cc34)n2C2CCN(C(C)C)C2)C1.O=CO (stereo not shown) [Example 93, N-(1-acryloylazetidin-3-yl)-2-(((5-(tert-butyl)-6-chloro-1H-indazol-3-yl)amino)methyl)-4-(difluoromethyl)-1-(1-isopropylpyrrolidin-3-yl)-1H-imidazole-5-carboxamide formate]	7.40	A (a binding rate of 80% or more is rated “A,”)	–
C=CC(=O)N1CC(N2CCN(C(=O)CNc3cc(C4(C)CC4)c(Cl)cc3O)CC2)C1 [ARS-853]	–	–	binding to the cysteine of the G12C mutant of inactive KRAS (GDP) [5]: binds to the cysteine of the G12C mutant of inactive KRAS (GDP); induction of apoptosis [6]: inducing apoptosis in cancer cells with KRAS G12C mutation
C=CC(=O)N1C[C@H](NC(=O)c2c(C)nc(CNc3n[nH]c4cc(Cl)c(C(C)(C)C)cc34)n2C)[C@@H](F)C1 [Example 64, N-((3S,4S)-1-acryloyl-4-fluoropyrrolidin-3-yl)-2-(((5-(tert-butyl)-6-chloro-1H-indazol-3-yl)amino)methyl)-1,4-dimethyl-1H-imidazole-5-carboxamide]	6.62	A (a binding rate of 80% or more is rated “A,”)	–

Further lines, with some results ahead:

pIC50 [3]	SMILES	binding rate for G12C K-Ras4B (1-169) [1]	also measured
7.28	C=CC(=O)N1CC(NC(=O)c2c(Cl)nc(CNc3n[nH]c4cc(Cl)c(C(C)(C)C)cc34)n2[C@H]2CC[C@@H](OC)CC2)C1 [Example 112, N-(1-acryloylazetidin-3-yl)-2-(((5-(tert-butyl)-6-chloro-1H-indazol-3-yl)amino)methyl)-4-chloro-1-(4-methoxycyclohexyl)-1H-imidazole-5-carboxamide]	A (a binding rate of 80% or more is rated “A,”)	pIC50 [2]: 8.30
6.85	C=CC(=O)N1C[C@H](NC(=O)c2c(F)nc(CNc3n[nH]c4cc(Cl)c(C(C)(C)C)cc34)n2C)[C@@H](F)C1 [Example 75, N-((3S,4S)-1-acryloyl-4-fluoropyrrolidin-3-yl)-2-(((5-(tert-butyl)-6-chloro-1H-indazol-3-yl)amino)methyl)-4-fluoro-1-methyl-1H-imidazole-5-carboxamide]	A (a binding rate of 80% or more is rated “A,”)	–
7.16	C=CC(=O)N1CC(NC(=O)c2c(Cl)nc(CNc3n[nH]c4cc(Cl)c(C(C)(C)C)cc34)n2[C@@H]2CCOC2)C1 [Example 102, (R)—N-(1-acryloylazetidin-3-yl)-2-(((5-(tert-butyl)-6-chloro-1H-indazol-3-yl)amino)methyl)-4-chloro-1-(tetrahydrofuran-3-yl)-1H-imidazole-5-carboxamide]	A (a binding rate of 80% or more is rated “A,”)	–
6.87	C=CC(=O)N1CC(NC(=O)c2c(C)nc(CNc3n[nH]c4cc(Cl)c(C(C)(C)C)cc34)n2C(C)C)C1 [Example 13, N-(1-acryloylazetidin-3-yl)-2-(((5-(tert-butyl)-6-chloro-1H-indazol-3-yl)amino)methyl)-1-isopropyl-4-methyl-1H-imidazole-5-carboxamide]	A (a binding rate of 80% or more is rated “A,”)	–
7.68	C=CCN1CC[C@@H](n2c(CNc3n[nH]c4cc(Cl)c(C(C)(C)C)cc34)nc(Cl)c2C(=O)NC2CN(C(=O)C=C)C2)C1 [Example 123, (R)—N-(1-acryloylazetidin-3-yl)-1-(1-allylpyrrolidin-3-yl)-2-(((5-(tert-butyl)-6-chloro-1H-indazol-3-yl)amino)methyl)-4-chloro-1H-imidazole-5-carboxamide]	A (a binding rate of 80% or more is rated “A,”)	–
7.38	C=CC(=O)N1CC(NC(=O)c2c(Cl)nc(CNc3n[nH]c4cc(Cl)c(C(C)(C)C)cc34)n2C2CN(C(=O)OC(C)(C)C)C2)C1 [Example 106, Tert-butyl 3-(5-((1-acryloylazetidin-3-yl)carbamoyl)-2-(((5-(tert-butyl)-6-chloro-1H-indazol-3-yl)amino)methyl)-4-chloro-1H-imidazol-1-yl)azetidine-1-carboxylate]	A (a binding rate of 80% or more is rated “A,”)	–
7.72	C=CC(=O)N1CC(NC(=O)c2c(Cl)nc(CNc3n[nH]c4cc(Cl)c(C(C)(C)C)cc34)n2[C@@H]2CCN(c3ccccn3)C2)C1 [Example 124, (R)—N-(1-acryloylazetidin-3-yl)-2-(((5-(tert-butyl)-6-chloro-1H-indazol-3-yl)amino)methyl)-4-chloro-1-(1-(pyridin-2-yl)pyrrolidin-3-yl)-1H-imidazole-5-carboxamide]	A (a binding rate of 80% or more is rated “A,”)	–
